Like-named read-outs stand apart in the source and are kept apart here.
Assays:
[1] = tested on: NIH/3T3 cells; assay: Cytotoxicity assay (Alamar Blue) on NIH/3T3 cells; format: cell-based; settings: 4-day assay on NIH/3T3 cells
Procedure: (§1) Cells (NIH/3T3 or HepG2) were washed and plated at a density of 50,000 cells/well of 96-well plates in 200 µl and allowed to adhere for 3 h. Twenty-four hour assays were done in DMEM without phenol red supplemented with 10% FBS and Pen-Strep-Glut, while 4-day assays were done in the same medium containing 2% FBS. Drugs were added and mixed. After 1 or 4 days, 20 µl of Alamar Blue (Biosource, Invitrogen) was added. Plates were incubated for 4 h (HepG2) or 6 h (NIH/3T3) at 37°C and fluorescence was read using a Labsystems Fluoroskan II plate reader (excitation: 544 nm, emission: 590 nm) .
(§2) To determine TC50 values, fluorescence was plotted against inhibitor concentration. TC50 was determined as the concentration at which cytotoxicity (fluorescence) was half that in the absence of inhibitor.

[2] = tested on: T. cruzi (Tulahuen strain) expressing β-galactosidase; assay: T. cruzi growth inhibition assay (β-gal activity, infection of NIH/3T3 cells); format: cell-based, Trypanosoma cruzi
Procedure: NIH/3T3 cells and parasites were harvested, washed once and resuspended in DMEM supplemented with 2% FBS and Pen-Strep-Glut. […] Different numbers of NIH/3T3 cells were seeded in 96-well plates. After 3 h, compounds were added at the indicated concentrations and mixed by pipetting. BZN tablets (Rochagan, Roche) dissolved in DMSO and 4 µM Amphotericin B solution (Sigma-Aldrich) were used as positive controls. Different numbers of T. cruzi parasites were added in a final volume of 200 µl/well. After 4 days, 50 µl of PBS containing 0.5% of the detergent NP40 and 100 µM Chlorophenol Red-β-D-galactoside (CPRG) (Fluka) were added. Plates were incubated at 37°C for 4 h and absorbance was read at 590 nm using a Tecan Spectra Mini plate reader.
To calculate the Z′ factor, we used the formula described by Zhang et al.: Z′ = 1−[(3σc++3σc−) / |μc+−μc−|] where σc+ = standard deviation (SD) of positive control, σc− = SD of negative control, μc+ = mean of positive control, μc− = mean of negative control. Subsequently, the best ratio was used for all growth inhibition assays (50.000 cells and parasites, multiplicity of infection (MOI) 1∶1).
To determine IC50 values, β-gal activity (Abs590) was plotted against compound concentration for each compound. The IC50 was determined as the concentration at which the activity (absorbance) was half that in the absence of compound. Mean IC50 values are the average of independent experiments performed in triplicate on three different days.

[3] = tested on: mammalian cells; assay: Cytotoxicity on mammalian cells (cell type not given); format: cell-based; settings: cells and duration not stated
Procedure: as §1, §2

[4] = Trypanosoma cruzi, TULAHUEN, NIH3T3, other confirmed hits that retained activity at 5 µg/ml, read-out: IC50 < 1 µg/ml
[5] = Trypanosoma cruzi, TULAHUEN, NIH3T3, 96 h, β-gal T. cruzi Tulahuen, 50.000 NIH/3T3 cells and parasites (MOI 1:1), 4 days, read-out: IC50 Intracellular growth
[6] = β-gal T. cruzi Tulahuen, 50.000 NIH/3T3 cells and parasites (MOI 1:1), 4 days, read-out: IC50 Intracellular growth
[7] = Trypanosoma cruzi, TULAHUEN, NIH3T3, 96 h, read-out: IC50 Intracellular growth

Cc1ccc2n(c1)cc(C)[n+]2CC(=O)c1ccc(-c2ccccc2)cc1.[Br-] [1-[2-(4-biphenylyl)-2-oxoethyl]-2,6-dimethylimidazo[1,2-a]pyridin-1-ium bromide]
TC50 > 25 mg/ml [1]: YES (> 25 mg/ml) | IC50 [2, 4]: > 1 µg/mL

O=c1c2c3c(sc2[nH]c(=S)n1Cc1ccccc1)CCC3 [3-benzyl-2-thioxo-1,2,3,5,6,7-hexahydro-4H-cyclopenta[4,5]thieno[2,3-d]pyrimidin-4-one]
TC50 > 25 mg/ml [1]: NO (> 25 mg/ml) | IC50 [2, 4]: > 1 µg/mL

Br.Cc1ccnc(Nc2nc(-c3ccccn3)cs2)c1 [4-methyl-N-[4-(2-pyridinyl)-1,3-thiazol-2-yl]-2-pyridinamine hydrobromide]
TC50 > 25 mg/ml [1]: NO (> 25 mg/ml) | IC50 [2, 4]: < 1 µg/mL

Cc1cc(OCCCCCn2ccnc2)cc(C)c1Cl [CX2, 1-[5-(4-chloro-3,5-dimethylphenoxy)pentyl]-1H-imidazole]
TC50 [3]: 19500 nM | IC50 [2, 5]: 2 nM | IC50 [2, 6]: 2.5 nM

Cc1cc(OCCCCn2ccnc2)cc(C)c1Cl [CX3, 1-[4-(4-chloro-3,5-dimethylphenoxy)butyl]-1H-imidazole]
IC50 [2, 5]: 5.1 nM

Cc1cc(Cl)cc(C)c1OCCCCCCn1ccnc1 [CX4, 1-[6-(4-chloro-2,6-dimethylphenoxy)hexyl]-1H-imidazole]
IC50 [2, 5]: 300 nM

Cc1cc(Cl)cc(C)c1OCCCCCn1ccnc1 [CX5, 1-[5-(4-chloro-2,6-dimethylphenoxy)pentyl]-1H-imidazole]
IC50 [2, 5]: 20.5 nM

Cc1cc(Cl)cc(C)c1OCCCCn1ccnc1 [CX6, 1-[4-(4-chloro-2,6-dimethylphenoxy)butyl]-1H-imidazole]
IC50 [2, 5]: 71.6 ± 37 nM

O=C(NN=Cc1cc(Br)cc(Br)c1O)c1cccc(N2CCCC2=O)c1 [N'-(3,5-dibromo-2-hydroxybenzylidene)-3-(2-oxo-1-pyrrolidinyl)benzohydrazide]
TC50 > 25 mg/ml [1]: NO (> 25 mg/ml) | IC50 [2, 4]: > 1 µg/mL

CCN(CC)c1ccc(N=Cc2cccc(C)c2)cc1 [N,N-diethyl-N'-(3-methylbenzylidene)-1,4-benzenediamine]
TC50 > 25 mg/ml [1]: YES (> 25 mg/ml) | IC50 [2, 4]: > 1 µg/mL

COc1ccc(NC(=S)NC(=O)c2ccco2)cc1 [N-{[(4-methoxyphenyl)amino]carbonothioyl}-2-furamide]
TC50 > 25 mg/ml [1]: YES (> 25 mg/ml) | IC50 [2, 4]: > 1 µg/mL

COc1cc(NC(=O)Cn2cnc([N+](=O)[O-])n2)cc([N+](=O)[O-])c1 [NT2, N-(3-methoxy-5-nitrophenyl)-2-(3-nitro-1H-1,2,4-triazol-1-yl)acetamide]
IC50 [2, 7]: 2630 ± 808 nM

O=C(Cn1cnc([N+](=O)[O-])n1)Nc1cc(Oc2cccnc2)cc([N+](=O)[O-])c1 [NT3, N-[3-nitro-5-(3-pyridinyloxy)phenyl]-2-(3-nitro-1H-1,2,4-triazol-1-yl)acetamide]
IC50 [2, 7]: 4920 ± 1280 nM

O=C(Cn1cnc([N+](=O)[O-])n1)Nc1cc(Oc2cncc(Cl)c2)cc([N+](=O)[O-])c1 [NT4, N-{3-[(5-chloro-3-pyridinyl)oxy]-5-nitrophenyl}-2-(3-nitro-1H-1,2,4-triazol-1-yl)acetamide]
IC50 [2, 7]: 1270 ± 251 nM

O=C(Cn1cnc([N+](=O)[O-])n1)Nc1cccc(C(F)(F)F)c1 [NT5, 2-(3-nitro-1H-1,2,4-triazol-1-yl)-N-[3-(trifluoromethyl)phenyl]acetamide]
IC50 [2, 5]: 1060 ± 385 nM

O=C(Cn1cnc([N+](=O)[O-])n1)Nc1cc(C(F)(F)F)ccc1Cl [NT6, N-[2-chloro-5-(trifluoromethyl)phenyl]-2-(3-nitro-1H-1,2,4-triazol-1-yl)acetamide]
IC50 [2, 5]: 1130 ± 378 nM

O=C(Cn1cnc([N+](=O)[O-])n1)Nc1ccc(Cl)cc1C(F)(F)F [NT7, N-[4-chloro-2-(trifluoromethyl)phenyl]-2-(3-nitro-1H-1,2,4-triazol-1-yl)acetamide]
IC50 [2, 5]: 1290 ± 463 nM

O=C(CCCn1cnc([N+](=O)[O-])n1)Nc1cc(C(F)(F)F)ccc1Cl [NT8, N-[2-chloro-5-(trifluoromethyl)phenyl]-4-(3-nitro-1H-1,2,4-triazol-1-yl)butanamide]
IC50 [2, 5]: 983 ± 388 nM

O=C(CCCn1cnc([N+](=O)[O-])n1)Nc1ccccc1C(F)(F)F [NT9, 4-(3-nitro-1H-1,2,4-triazol-1-yl)-N-[2-(trifluoromethyl)phenyl]butanamide]
IC50 [2, 5]: 3020 ± 1390 nM

O=C(NN=Cc1ccc(-c2cccc(Cl)c2Cl)o1)c1cccnc1 [PCH2, N′-{[5-(2,3-dichlorophenyl)-2-furyl]methylene}nicotinohydrazide]
IC50 [2, 5]: 1930 ± 707 nM

O=C(NN=Cc1ccc(-c2cccc(Cl)c2Cl)o1)c1ccncc1 [PCH3, N′-{[5-(2,3-dichlorophenyl)-2-furyl]methylene}isonicotinohydrazide]
IC50 [2, 5]: > 10000 nM

O=C(NN=Cc1ccc(-c2cccc(Cl)c2Cl)o1)c1ccc(Br)cc1 [PCH4, 4-bromo-N′-{[5-(2,3-dichlorophenyl)-2-furyl]methylene}benzohydrazide]
IC50 [2, 5]: > 10000 nM

O=C(NN=Cc1ccc(-c2cccc(Cl)c2)o1)c1ccccn1 [PCH5, N′-{[5-(3-chlorophenyl)-2-furyl]methylene}-2-pyridinecarbohydrazide]
IC50 [2, 5]: 29 ± 20 nM

O=C(NN=Cc1ccc(-c2ccccc2Cl)o1)c1ccccn1 [PCH6, N′-{[5-(2-chlorophenyl)-2-furyl]methylene}-2-pyridinecarbohydrazide]
TC50 [3]: 18500 nM | IC50 [2, 5]: 2 nM | IC50 [2, 6]: 2.1 nM

O=C(NN=Cc1ccc(-c2ccc(Cl)c(Cl)c2)o1)c1ccccn1 [PCH7, N′-{[5-(3,4-dichlorophenyl)-2-furyl]methylene}-2-pyridinecarbohydrazide]
IC50 [2, 5]: 35 ± 20 nM

COc1ccc(-c2ccc(C=NNC(=O)c3ccccn3)o2)cc1Cl [PCH8, N′-{[5-(3-chloro-4-methoxyphenyl)-2-furyl]methylene}-2-pyridinecarbohydrazide]
IC50 ([2]; Trypanosoma cruzi, TULAHUEN, NIH3T3, 96 h, β-gal T. cruzi Tulahuen in NIH/3T3 cells, 4 days, read-out: IC50 T. cruzi growth inhibition): 1600 nM | IC50 [2, 5]: 1680 ± 490 nM

O=C(NN=Cc1ccc(-c2cc(Cl)ccc2Cl)o1)c1ccccc1 [PCH9, N′-{[5-(2,5-dichlorophenyl)-2-furyl]methylene}benzohydrazide]
IC50 [2, 5]: 960 ± 300 nM

O=C(NN=Cc1ccc(-c2ccccc2Cl)o1)c1cccnc1 [PCH10, N′-{[5-(2-chlorophenyl)-2-furyl]methylene}nicotinohydrazide]
IC50 [2, 5]: 720 ± 183 nM

CCOC(=O)c1ccc(Nc2nc3nonc3nc2NC(C)C)cc1 [ethyl 4-{[6-(isopropylamino)[1,2,5]oxadiazolo[3,4-b]pyrazin-5-yl]amino}benzoate]
TC50 > 25 mg/ml [1]: NO (> 25 mg/ml) | IC50 [2, 4]: > 1 µg/mL

CCOc1ccc(-c2cn3c4ccccc4n(CCN(CC)CC)c3n2)cc1.Cl [{2-[2-(4-ethoxyphenyl)-9H-imidazo[1,2-a]benzimidazol-9-yl]ethyl}diethylamine hydrochloride]
TC50 > 25 mg/ml [1]: NO (> 25 mg/ml) | IC50 [2, 4]: > 1 µg/mL
